Test results: PubChem BioAssay AID179 (DTP/NCI, 2004)
Calls of active or inactive are those of the source.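 The calls were made as follows: active = compounds giving half or more protection of infected cells from virus-caused growth loss, again on retest; inactive = the rest.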

System: CEM cells HIV-1 protection, formazan growth assay
Assay: NCI AIDS Antiviral Assay
Conditions: for IC50: measured here: growth of uninfected CEM cells
Procedure, shortened: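 Human CEM cells, uninfected and HIV-1-infected, received five drug concentrations, and growth was read by soluble formazan assay. Compounds giving at least 50% protection were retested; reproducible 100% protection defined confirmed active.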

Structure (SMILES)	EC50	IC50	outcome
CCOC(=O)CCCNC(=O)CCCCC(=O)N(C)C	> 200 µM	> 200 µM	–
COc1cccc2c(NNc3ccc(Cl)cc3)c3ccc([N+](=O)[O-])cc3nc12	> 200 µM	12.3 µM	–
CN(C)CCCSc1c2ccccc2nc2cc(NCC(=O)Nc3ccccc3-c3ccccc3NC(=O)CNc3ccc4c(SCCCN(C)C)c5ccccc5nc4c3)ccc12	> 123 µM	58.9 µM	–
Cc1ccc(S(=O)S(=O)c2ccc(C)cc2)cc1 (centres undefined)	–	–	inactive
COc1cc2cc3c4c(cc(OC)c(OC)c4c2cc1OC)CCN3C(=O)CCCC(=O)O	> 200 µM	110 µM	–
COc1cc2c(cc1OC)C(Cl)C(c1ccc(Cl)c(Cl)c1)=C2Cl (centres undefined)	–	–	inactive
CN1C(=S)C(c2ccccc2)Sc2ccccc21 (centres undefined)	> 200 µM	42.7 µM	–
CC1OC(OC2C(Oc3cc(O)c4c(c3)OC(c3ccc(O)cc3)CC4=O)OC(CO)C(O)C2O)C(O)C(O)C1O (centres undefined)	> 200 µM	> 200 µM	–
CC1=C(CCc2ccoc2)[C@@]2(C)CCCC(C)(C)C2C(=O)[C@@H]1O[C@H]1C(=O)C2C(C)(C)CCC[C@]2(C)[C@](O)(CCc2ccoc2)C1C (some centres undefined)	> 4.27 µM	> 4.27 µM	–
Clc1ccc(NC2=NCCN=C(Nc3ccc(Cl)cc3)SS2)cc1	> 200 µM	22.9 µM	–
CN1CCOC1(C)c1ccccc1O (centres undefined)	> 200 µM	> 200 µM	–
O=C(O)CCCCCCCCCCCC(=O)O	> 148 µM	> 148 µM	–
CSc1nc(=O)c(C#N)c(-c2ccccc2)n1C1OC(COC(C)=O)C(OC(C)=O)C(OC(C)=O)C1OC(C)=O (centres undefined)	> 200 µM	93.3 µM	–
Nc1nccc(Nc2ccc(S(N)(=O)=O)cc2)n1	> 200 µM	135 µM	–
Nc1ncnc2c1[nH]c(=O)n2-c1ccccc1	> 200 µM	178 µM	–
CCCC(=O)c1ccc(=O)n(C)c1	> 1380 µM	1070 µM	–

Structure (SMILES)	EC50	IC50	outcome
COC(=O)C1=CCS(=O)(=O)C1	> 1410 µM	178 µM	–
CNC(=S)N/N=C(\C)c1cc(OC)ccc1O	> 200 µM	14.5 µM	–
OC[C@H]1N=C(c2cccs2)OC1c1ccccc1 (some centres undefined)	> 200 µM	> 200 µM	–
C[N+]1(CCNP(=S)(NCC[N+]2(C)Cc3c(ccc4c3OCO4)C3C2c2cc4c(cc2C[C@@H]3O)OCO4)NCC[N+]2(C)Cc3c(ccc4c3OCO4)C3C2c2cc4c(cc2C[C@@H]3O)OCO4)Cc2c(ccc3c2OCO3)C2C1c1cc3c(cc1C[C@H]2O)OCO3 (some centres undefined)	> 380 µM	4.68 µM	–
CCN(CC)CC(=O)NC1c2ccccc2Oc2c(C)cccc21 (centres undefined)	> 288 µM	145 µM	–
O=C(NC(=O)c1cn(CCN2CCN(C(=O)NCCCCCCNC(=O)N3CCN(CCn4cc(C(=O)NC(=O)OCc5ccccc5)c(=O)[nH]c4=O)CC3)CC2)c(=O)[nH]c1=O)OCc1ccccc1	–	–	inactive
CCOC(=O)c1c(O)cc(=O)[nH]c1N1CCOCC1	> 200 µM	> 200 µM	–
O=C(c1ccc(Cl)cc1)C1OC12C(=O)Nc1c(Cl)cc(Cl)cc12 (centres undefined)	> 19.5 µM	> 19.5 µM	–
O=C(c1ccc(Cl)cc1)c1ccc(OCC(=O)N2CCN(c3ccccc3)CC2)cc1	> 12 µM	> 12 µM	–
CCOP(=O)(O)C(Nc1ccc(N=Nc2ccccc2)cc1)c1cccc(C(Nc2ccc(N=Nc3ccccc3)cc2)P(=O)(O)OCC)c1 (centres undefined)	> 200 µM	35.5 µM	–
COc1cc2c(cc1OC)C(CC1=C(c3ccccc3)CN3CCc4cc(OC)c(OC)cc4C3C1)NCC2 (centres undefined)	–	–	inactive
O=c1[nH]c2cc(Cl)ccc2nc1/C(=N\Nc1ccccc1)C(O)c1ccc2c(c1)OCO2 (centres undefined)	> 209 µM	> 209 µM	–
CC1CCCN2C(=O)CN(Cc3ccccc3)CC(=O)N12 (centres undefined)	–	–	inactive
C/C(C=C(C#N)C#N)=C\c1ccc(N(C)C)cc1	> 21.9 µM	> 21.9 µM	–
NNC(=O)C(=O)N/N=C(\CCC(=O)Nc1ccc(Cl)cc1)Cc1nc2ccccc2s1	> 77.6 µM	14.5 µM	–
COc1ccc(C2CC(=O)c3c(OC(C)=O)cc(OC(C)=O)cc3O2)cc1OC(C)=O (centres undefined)	> 200 µM	7.76 µM	–
